# Results taken from patent US10485808B2, “Selective progesterone receptor modulators (SPRM) and stabilized estrogen level in patient” (BAYER PHARMA AKTIENGESELLSCHAFT, priority 2017, dated 2019).
# Columns and labels:
# Assay type in all cases: in vivo, human
# [1] = system: healthy women of reproductive age; experiment: Study 15818: estradiol (E2) serum concentration after daily oral Compound 1
# Protocol: Example 2: Circulating Endogenous Estrogen Concentrations in Healthy Women of Reproductive Age Receiving Compound 1 (Cp1)
# Study protocol (N^o 15818): A randomized, double-blind, parallel-group, multi-center study to investigate the pharmacodynamics, pharmacokinetics and safety after daily oral administration of 4 different doses of Compound 1 in healthy women of reproductive age
# Doses: 0.5 mg, 1 mg, 2 mg, or 4 mg once daily
# Route of administration: Oral
# Duration of treatment: 1×12 weeks (84 days)
# • Age: 18-40 years • Smoking ≤10 cigarettes/day • Body mass index ≥18 and ≤32 kg/m^2 • Signed informed consent prior to study participation • No contraindication for intake of Compound 1 • Ovulation in pre-treatment cycle • Use of non-hormonal contraception during the study. Number of Subjects: see Table 1 for the number of subjects per Dosage Measurement of primary variable Estradiol: The estradiol (E2) serum concentration was assessed for each subject at the following Visit Days of the study, see FIG. 1 • Pre-treatment Day 9 (D9) corresponds to the period before start of Compound 1 uptake; the pre-treatment cycle starts on the first day of the subject waking up with menstrual bleeding with intensity more than spotting after screening examinations have shown that the subject is eligible for further participation. The pre-treatment period ends by the starting of next menstrual bleeding; • Treatment Day (D84) corresponds to last intake of Compound 1. The treatment phase started with the first and ended with the last intake of the study drug. The subjects have to start the intake of Compound 1 during the first week of the menstrual cycle after the pre-treatment cycle until the last Treatment Day (D84). • The follow-up cycle 1 started on the first day without study drug intake and will end in case of start of menstrual bleeding (i.e. when the subject is waking up with menstrual bleeding with intensity more than spotting). The first day of menstrual bleeding will define the start of follow-up cycle 2. Follow-up cycle 2 ended when the subjects report the next menstrual bleeding (i.e. first day of waking up with menstrual bleeding with intensity more than spotting).
# During pre-treatment, end of treatment and at Follow-up Cycle 2, Estradiol (E2) serum concentrations are measured.
# Eligible subjects were randomized to one of the treatment groups (0.5 mg, 1 mg, 2 mg, or 4 mg Compound 1). The treatment period consisted of 12 weeks (84 days) of daily tablet intake.
# [2] = system: women diagnosed with uterine fibroids; experiment: Study 15788: hot flush events during treatment
# Text: Example 5: Hot Flush Events in Study Subject Treated with Compound 1 (Cp1)
# See full study description in Example 4.
# (§1) Hot flush events were reported and monitored during treatment.
# [3] = system: women diagnosed with uterine fibroids; experiment: Study 17541/A1: hot flush events during treatment; details: Cp1 2.0 mg once daily oral, 24 weeks
# Text: Example 7: Hot Flush Events in Study Subject Treated with Compound 1 (Cp1)
# See full study description in Example 6.
# as §1
# [4] = Cp1 0.5 mg once daily oral, Follow-up cycle2 D 9
# [5] = Cp1 0.5 mg once daily oral, Pre-treatment D 9
# [6] = Cp1 0.5 mg once daily oral, Treatment D 84
# [7] = Cp1 1 mg once daily oral, Follow-up cycle2 D 9
# [8] = Cp1 1 mg once daily oral, Pre-treatment D 9
# [9] = Cp1 1 mg once daily oral, Treatment D 84
# [10] = Cp1 2 mg once daily oral, Follow-up cycle2 D 9
# [11] = Cp1 2 mg once daily oral, Pre-treatment D 9
# [12] = Cp1 2 mg once daily oral, Treatment D 84
# [13] = Cp1 4 mg once daily oral, Follow-up cycle2 D 9
# [14] = Cp1 4 mg once daily oral, Pre-treatment D 9
# [15] = Cp1 4 mg once daily oral, Treatment D 84
smiles,measurement,setting,value
"C[C@]12C[C@H](c3ccc(S(C)(=O)=O)cc3)C3=C4CCC(=O)C=C4CC[C@H]3[C@@H]1CC[C@@]2(O)C(F)(F)C(F)(F)F [Compound 1, (11β,17β)-17-Hydroxy-11-[4-(methylsulphonyl)phenyl]-17-(pentafluoroethyl)estra-4,9-dien-3-one]",Change of estradiol (E2) concentrations during treatment,"[1]; 0.5-4 mg once daily, 12 weeks",slight decrease
same,"Estradiol concentrations in serum, Max",[1]; [4],262 pg/mL
same,"Estradiol concentrations in serum, Mean",[1]; [4],116.1 pg/mL
same,"Estradiol concentrations in serum, Median",[1]; [4],79.9 pg/mL
same,"Estradiol concentrations in serum, Min",[1]; [4],17 pg/mL
same,"Estradiol concentrations in serum, Max",[1]; [5],381 pg/mL
same,"Estradiol concentrations in serum, Mean",[1]; [5],138 pg/mL
same,"Estradiol concentrations in serum, Median",[1]; [5],104.5 pg/mL
same,"Estradiol concentrations in serum, Min",[1]; [5],14 pg/mL
same,"Estradiol concentrations in serum, Max",[1]; [6],423 pg/mL
same,"Estradiol concentrations in serum, Mean",[1]; [6],135.6 pg/mL
same,"Estradiol concentrations in serum, Median",[1]; [6],about 80 pg/mL
same,"Estradiol concentrations in serum, Min",[1]; [6],23 pg/mL
same,"Estradiol concentrations in serum, Median","[1]; Cp1 0.5 mg once daily oral, Treatment D 84, listed as Cp1",82 pg/mL
same,"Estradiol concentrations in serum, Max",[1]; [7],305 pg/mL
same,"Estradiol concentrations in serum, Mean",[1]; [7],143.8 pg/mL
same,"Estradiol concentrations in serum, Median",[1]; [7],119.2 pg/mL
same,"Estradiol concentrations in serum, Min",[1]; [7],39 pg/mL
same,"Estradiol concentrations in serum, Max",[1]; [8],311 pg/mL
same,"Estradiol concentrations in serum, Mean",[1]; [8],143.3 pg/mL
same,"Estradiol concentrations in serum, Median",[1]; [8],92.3 pg/mL
same,"Estradiol concentrations in serum, Min",[1]; [8],39 pg/mL
same,"Estradiol concentrations in serum, Max",[1]; [9],276 pg/mL
same,"Estradiol concentrations in serum, Mean",[1]; [9],119.4 pg/mL
same,"Estradiol concentrations in serum, Median",[1]; [9],about 80 pg/mL
same,"Estradiol concentrations in serum, Min",[1]; [9],42 pg/mL
same,"Estradiol concentrations in serum, Median","[1]; Cp1 1 mg once daily oral, Treatment D 84, listed as Cp1",81.5 pg/mL
same,"Estradiol concentrations in serum, Max",[1]; [10],395 pg/mL
same,"Estradiol concentrations in serum, Mean",[1]; [10],123.9 pg/mL
same,"Estradiol concentrations in serum, Median",[1]; [10],80.9 pg/mL
same,"Estradiol concentrations in serum, Min",[1]; [10],33 pg/mL
same,"Estradiol concentrations in serum, Max",[1]; [11],308 pg/mL
same,"Estradiol concentrations in serum, Mean",[1]; [11],113.5 pg/mL
same,"Estradiol concentrations in serum, Median",[1]; [11],82.2 pg/mL
same,"Estradiol concentrations in serum, Min",[1]; [11],33 pg/mL
same,"Estradiol concentrations in serum, Max",[1]; [12],330 pg/mL
same,"Estradiol concentrations in serum, Mean",[1]; [12],91.2 pg/mL
same,"Estradiol concentrations in serum, Median",[1]; [12],about 80 pg/mL
same,"Estradiol concentrations in serum, Min",[1]; [12],34 pg/mL
same,"Estradiol concentrations in serum, Median","[1]; Cp1 2 mg once daily oral, Treatment D 84, listed as Cp1",78.5 pg/mL
same,"Estradiol concentrations in serum, Max",[1]; [13],279 pg/mL
same,"Estradiol concentrations in serum, Mean",[1]; [13],109.9 pg/mL
same,"Estradiol concentrations in serum, Median",[1]; [13],88.7 pg/mL
same,"Estradiol concentrations in serum, Min",[1]; [13],41 pg/mL
same,"Estradiol concentrations in serum, Max",[1]; [14],200 pg/mL
same,"Estradiol concentrations in serum, Mean",[1]; [14],126.4 pg/mL
same,"Estradiol concentrations in serum, Median",[1]; [14],122.9 pg/mL
same,"Estradiol concentrations in serum, Min",[1]; [14],44 pg/mL
same,"Estradiol concentrations in serum, Max",[1]; [15],81 pg/mL
same,"Estradiol concentrations in serum, Mean",[1]; [15],53.9 pg/mL
same,"Estradiol concentrations in serum, Median",[1]; [15],about 50 pg/mL
same,"Estradiol concentrations in serum, Min",[1]; [15],39 pg/mL
same,"Estradiol concentrations in serum, Median","[1]; Cp1 4 mg once daily oral, Treatment D 84, listed as Cp1",50.5 pg/mL
same,Reversibility of estradiol (E2) decrease after end of treatment,[1]; pre-treatment vs follow-up Cycle 2,completely reversible
same,"Hot flush events, MILD, number of subjects","[2]; Cp1 0.5 mg, N = 60, 12 weeks",5
same,"Hot flush events, MILD, percent of subjects","[2]; Cp1 0.5 mg, N = 60, 12 weeks",8.3%
same,"Hot flush events, MODERATE, number of subjects","[2]; Cp1 0.5 mg, N = 60, 12 weeks",0
same,"Hot flush events, SEVERE, number of subjects","[2]; Cp1 0.5 mg, N = 60, 12 weeks",single
same,"Hot flush events, SEVERE, percent of subjects","[2]; Cp1 0.5 mg, N = 60, 12 weeks",1.7%
same,"Hot flush events, Total, number of subjects","[2]; Cp1 0.5 mg, N = 60, 12 weeks",6
same,"Hot flush events, Total, percent of subjects","[2]; Cp1 0.5 mg, N = 60, 12 weeks",0.0%
same,"Hot flush events, SEVERE, number of subjects","[2]; Cp1 0.5 mg, N = 60, 12 weeks, listed as Cp1",1
same,"Hot flush events, MILD, number of subjects","[2]; Cp1 1 mg, N = 61, 12 weeks",3
same,"Hot flush events, MILD, percent of subjects","[2]; Cp1 1 mg, N = 61, 12 weeks",4.9%
same,"Hot flush events, MODERATE, number of subjects","[2]; Cp1 1 mg, N = 61, 12 weeks",2
same,"Hot flush events, MODERATE, percent of subjects","[2]; Cp1 1 mg, N = 61, 12 weeks",3.3%
same,"Hot flush events, SEVERE, number of subjects","[2]; Cp1 1 mg, N = 61, 12 weeks",0
same,"Hot flush events, Total, number of subjects","[2]; Cp1 1 mg, N = 61, 12 weeks",5
same,"Hot flush events, Total, percent of subjects","[2]; Cp1 1 mg, N = 61, 12 weeks",8.2%
same,"Hot flush events, MILD, number of subjects","[2]; Cp1 2 mg, N = 61, 12 weeks",4
same,"Hot flush events, MILD, percent of subjects","[2]; Cp1 2 mg, N = 61, 12 weeks",6.6%
same,"Hot flush events, MODERATE, number of subjects","[2]; Cp1 2 mg, N = 61, 12 weeks",1
same,"Hot flush events, MODERATE, percent of subjects","[2]; Cp1 2 mg, N = 61, 12 weeks",1.6%
same,"Hot flush events, SEVERE, number of subjects","[2]; Cp1 2 mg, N = 61, 12 weeks",0
same,"Hot flush events, Total, number of subjects","[2]; Cp1 2 mg, N = 61, 12 weeks",5
same,"Hot flush events, Total, percent of subjects","[2]; Cp1 2 mg, N = 61, 12 weeks",8.2%
same,"Hot flush events, MILD, number of subjects","[2]; Cp1 4 mg, N = 60, 12 weeks",5
same,"Hot flush events, MILD, percent of subjects","[2]; Cp1 4 mg, N = 60, 12 weeks",8.3%
same,"Hot flush events, MODERATE, number of subjects","[2]; Cp1 4 mg, N = 60, 12 weeks",3
same,"Hot flush events, MODERATE, percent of subjects","[2]; Cp1 4 mg, N = 60, 12 weeks",5.0%
same,"Hot flush events, SEVERE, number of subjects","[2]; Cp1 4 mg, N = 60, 12 weeks",0
same,"Hot flush events, Total, number of subjects","[2]; Cp1 4 mg, N = 60, 12 weeks",8
same,"Hot flush events, Total, percent of subjects","[2]; Cp1 4 mg, N = 60, 12 weeks",13.3%
same,"Subjects showing mild to moderate hot flushes, overall","[2]; all dose groups, 12 weeks",no more than 14%
same,"Hot flush events, Events (%)",[3],no more than 11.4%
same,"Hot flush events, Events (%)",[3]; listed as Cp1,11.4%
